The results in this text go back to patent US20170360781A1, “PHARMACEUTICAL COMPOSITION COMPRISING BICYCLIC NITROGEN-CONTAINING AROMATIC HETEROCYCLIC AMIDE COMPOUND AS ACTIVE INGREDIENT” (Astellas Pharma Inc., priority 2014, published 2017).

Common to all, as to assay type: in vivo
Assay [1] deals with Human AML-derived MV-4-11 cells. As to the kind of experiment: Anti-tumor test 2 on tumor-bearing mice transplanted with human AML-derived MV-4-11 cell. The note with it: MV-4-11, NOD/SCID mice, 8 mg/kg oral once a day, 14 days after starting the administration. The protocol: 4 to 5 week old male NOD/SCID nude mice (CHARLES RIVER LABORATORIES JAPAN, INC.) were injected and implanted, under the skin on the back, with 5×10^6 MV-4-11 cells suspended to a mixed solution of PBS and Matrigel (registered trademark) in 1:1. Administering of the test compounds was started when tumor volume reached 100 to 250 mm^3. The test was performed on each of the 5 mice in the solvent group and the compound administered group. By oral administration, 6% cyclodextrin aqueous solution for the solvent group, and 6% cyclodextrin aqueous solution in which the test compound was mixed by the dosage shown in Table 8 for the compound administered group were administered. The administration was performed once a day by oral administration, and the body weight and the tumor diameter were measured twice a week. For calculation of the tumor volume, the formula below was used.
(§1) [Tumor volume(mm^3)]=[major axis of tumor(mm)]×[minor axis of tumor(mm)]^2×0.5
(§2) The inhibition rate of tumor growth and the rate of tumor regression were calculated from the average value of the tumor volume according to the formula below.
(§3) Inhibition rate of tumor growth(%)=(1−average of tumor volume growth in each group/average of tumor volume growth in solvent group)×100
(§4) Rate of tumor regression(%)=(1−average tumor volume in each group on measuring day/average tumor volume in each group when dividing groups)×100
The anti-tumor effect of Test Compounds A1, B1, C1, and D1 on the final measuring day (14 days after starting the administration) is shown in Table 8.

The test system of assay [2] is PIK3CA mutation-positive Colo201 cells derived from human colorectal cancer. Put plainly: Anti-tumor test 1 on mice tumor-bearing human colorectal cancer-derived Colo201 cells. The note with it: Colo201, Balb/c nude mice, 8 mg/kg oral once a day for 14 days, final measuring day. The protocol:
(§5) 5 to 6 week old male Balb/c nude mice (CHARLES RIVER LABORATORIES JAPAN, INC.) were injected and implanted, under the skin on the back, with 1.5×10^6 PIK3CA mutation-positive and BRAF mutation-positive RKO cells, or 3×10^6 PIK3CA mutation-positive Colo201 cells, both derived from human colorectal cancer suspended to a PBS solution or a mixed solution of PBS and Matrigel (registered trademark) in 1:1. Dividing into groups was performed when the tumor volume reached 100 to 300 mm^3, and administering of the test compounds was started. The test was performed on each of the 5 mice in a solvent group and a compound administered group. By oral administration, 6% cyclodextrin aqueous solution for the solvent group, and 6% cyclodextrin aqueous solution in which the test compound was mixed by 8 mg/kg for the compound administered group were administered. The administration was performed once a day for 10 days (RKO) or 14 days (Colo201), and the body weight and the tumor diameter were measured twice a week. For calculation of the tumor volume, the formula below was used.
as §1
(§6) The inhibition rate of tumor growth was calculated from the average value of the tumor volume according to the formula below. […]

For assay [3], the system named is PIK3CA mutation-positive and BRAF mutation-positive RKO cells derived from human colorectal cancer. Put plainly: Anti-tumor test 1 on mice tumor-bearing human colorectal cancer-derived RKO cells. The conditions noted are these: Balb/c nude mice, 8 mg/kg oral once a day for 10 days, final measuring day. The protocol: as §5, §1, §6
Assay [4] deals with Human AML-derived MV-4-11 cells. Put plainly: Anti-tumor test 1 on tumor-bearing mice transplanted with human AML-derived MV-4-11 cell. The note with it: MV-4-11, NOD/SCID mice, 8 mg/kg oral once a day for 19 days, final measuring day. The protocol: (§7) 4 to 5 week old male NOD/SCID nude mice (CHARLES RIVER LABORATORIES JAPAN, INC.) were injected and implanted, under the skin on the back, with 5×10^6 MV-4-11 cells suspended to a mixed solution of PBS and Matrigel (registered trademark) in 1:1. After 7 days of implantation, administering of the test compounds was started. […] The administration was performed once a day for 19 days by oral administration, and the body weight and the tumor diameter were measured twice a week. For calculation of the tumor volume, the formula below was used.
as §1
The inhibition rate of tumor growth was calculated from the average value of the tumor volume according to the formula below.
as §3

Assay [5] has as its system WSU-DLCL-2 cells derived from DLBCL. As to the kind of experiment: Anti-tumor test 1 on mice tumor-bearing DLBCL-derived WSU-DLCL-2 cells. The conditions noted are these: WSU-DLCL-2, Balb/c nude mice, 8 mg/kg oral once a day for 17 days, final measuring day. The protocol: as §7, with “Balb/c” for “NOD/SCID”, “3×10^6 DB” for “5×10^6 MV-4-11”, “cells or WSU-DLCL-2 cells both derived from DLBCL” for “cells”, “Dividing into groups was performed when the average tumor volume reached 400 to 500 mm^3, and” for “After 7 days of implantation,”, “16” for “19”, “days (DB) or 17 days (WSU-DLCL-2)” for “days”
(§8) [Tumor volume(mm^3)]=[major axis of tumor(mm)]×[minor axis of tumor (mm)]^2×0.5
The rate of tumor regression was calculated from the average value of the tumor volume according to the formula below.
as §4

Assay [6] deals with SU-DHL-4 cells derived from DLBCL. As to the kind of experiment: Anti-tumor test 2 on mice tumor-bearing DLBCL-derived SU-DHL-4 cells. The note with it: SU-DHL-4, Balb/c nude mice, 8 mg/kg oral once a day for 21 days, final measuring day. The protocol:
4 to 5 week old male Balb/c nude mice (CHARLES RIVER LABORATORIES JAPAN, INC.) were injected and implanted, under the skin on the back, with 3×10^6 DB cells or SU-DHL-4 cells both derived from DLBCL suspended to a mixed solution of PBS and Matrigel (registered trademark) in 1:1. Dividing into groups was performed when tumor volume reached 100 to 250 mm^3, and administering of the test compounds was started. The test was performed on each of the 5 mice in the solvent group and the compound administered group. By oral administration, 6% cyclodextrin aqueous solution for the solvent group, and 6% cyclodextrin aqueous solution in which the test compound was mixed by the dosage shown in Table 10 for the compound administered group were administered. The administration was performed once a day for 21 days by oral administration, and the body weight and the tumor diameter were measured twice a week. For calculation of the tumor volume, the formula below was used.
as §8, §2, §3, §4

For the molecule `COc1ccc(CN2CCC(c3ccc4[nH]c(C(=O)N5CCN(Cc6ccc(C(F)(F)F)cc6)CC5)nc4c3)CC2)cn1` [Compound A1, (5-{1-[(6-methoxypyridin-3-yl)methyl]piperidin-4-yl}-1H-benzimidazol-2-yl){4-[4-(trifluoromethyl)benzyl]piperazin-1-yl}methanone], in assay [1], the “Rate of tumor regression” value is listed as 70% regression. In addition, the “Inhibition rate of tumor growth” value in assay [2] worked out at 60%; in assay [3] it was 67%; in assay [4], 96%. In addition, the Regression rate in assay [5] worked out at 72%. The “Inhibition rate SU-DHL-4” value in assay [6] came out at 64%.
